In the NIST ThermoML archive (doi:10.1021/je0201166) one finds mass density and Normal boiling temperature data, which are given here for three compounds.

What is called mass density is the mass of a sample divided by its volume.

The conditions of this data set: Liquid; for mass density: 298.15 K, 101.33 kPa.

Numbers after ± are expanded uncertainties.

For the compound `CO` [methanol], the mass density turned out to be 786.7 ± 5 kg/m3 and the Normal boiling temperature turned out to be 64.54 ± 0.1 °C.

For the compound `C1COCO1` [1,3-dioxolane], the mass density is recorded as 1058.6 ± 5 kg/m3 and the Normal boiling temperature stood at 75.42 ± 0.1 °C.

With `O` [water], the mass density is on record as 997.2 ± 5 kg/m3 and the Normal boiling temperature was 99.98 ± 0.1 °C.
